# Data reported in BindingDB's records for doi:10.3109/14756366.2012.727812 (Shiraz University, 2013).
# Where “and” joins values, the source holds several entries; their conditions need not be identical. Equal entries are not always repeated.
# Target: Alpha-glucosidase MAL12 (Saccharomyces cerevisiae (strain ATCC 204508 / S288c), UniProt P53341)
# Test: Inhibition Assay
# Details: pH 7
# Experimental: In this study, the inhibition assay of yeast enzyme was performed in 100 mM phosphate buffer pH 7.0 at 25°C with minor changes, according to the methods reported previously. [Saijyo et al., J. Oleo. […] After centrifugation, the supernatant was dialyzed against 10 mM potassium phosphate buffer (pH 7.0) containing 0.
# Chain of Alpha-glucosidase MAL12 (P53341 whole entry): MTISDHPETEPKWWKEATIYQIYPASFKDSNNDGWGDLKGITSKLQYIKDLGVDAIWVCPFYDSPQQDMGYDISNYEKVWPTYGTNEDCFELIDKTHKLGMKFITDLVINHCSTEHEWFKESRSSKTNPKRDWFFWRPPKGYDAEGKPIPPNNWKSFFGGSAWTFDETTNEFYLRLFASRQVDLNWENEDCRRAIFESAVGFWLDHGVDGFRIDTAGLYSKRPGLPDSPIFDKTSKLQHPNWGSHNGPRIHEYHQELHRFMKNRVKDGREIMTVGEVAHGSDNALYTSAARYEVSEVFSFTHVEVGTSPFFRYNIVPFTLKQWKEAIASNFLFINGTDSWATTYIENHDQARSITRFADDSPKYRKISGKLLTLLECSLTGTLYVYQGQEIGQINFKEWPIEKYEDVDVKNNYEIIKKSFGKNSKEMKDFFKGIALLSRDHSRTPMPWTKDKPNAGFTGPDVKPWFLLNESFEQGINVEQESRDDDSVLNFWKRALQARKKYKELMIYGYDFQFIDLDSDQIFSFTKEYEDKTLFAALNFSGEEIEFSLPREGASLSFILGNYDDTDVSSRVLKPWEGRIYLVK
Structure (SMILES),IC50,Ki
"Nc1ccc(S(=O)(=O)c2ccc(N3c4[nH]c(=O)[nH]c(=O)c4C(C(O)C(O)C(O)C(O)CO)c4c3[nH]c(=O)[nH]c4=O)cc2)cc1 (stereo not drawn) [α-Gl inhibitor, C3]",9.6 µM,14 µM
"O=c1[nH]c2c(c(=O)[nH]1)C(C(O)C(O)C(O)C(O)CO)c1c([nH]c(=O)[nH]c1=O)N2c1ccc(Br)cc1 (stereo not drawn) [α-Gl inhibitor, C2]",25.1 µM,30 µM and 130 µM
"O=c1[nH]c2c(c(=O)[nH]1)C(C(O)C(O)C(O)C(O)CO)c1c([nH]c(=O)[nH]c1=O)N2c1ccc(O)cc1 (stereo not drawn) [α-Gl inhibitor, C1]",74.9 µM,70 µM and 170 µM
